# Target: T1, GR (Homo sapiens, UniProt P04150)
# T1 construct: expressed in transfected cells; host or cells: CHO-K1
# T1 sequence (P04150 1-777): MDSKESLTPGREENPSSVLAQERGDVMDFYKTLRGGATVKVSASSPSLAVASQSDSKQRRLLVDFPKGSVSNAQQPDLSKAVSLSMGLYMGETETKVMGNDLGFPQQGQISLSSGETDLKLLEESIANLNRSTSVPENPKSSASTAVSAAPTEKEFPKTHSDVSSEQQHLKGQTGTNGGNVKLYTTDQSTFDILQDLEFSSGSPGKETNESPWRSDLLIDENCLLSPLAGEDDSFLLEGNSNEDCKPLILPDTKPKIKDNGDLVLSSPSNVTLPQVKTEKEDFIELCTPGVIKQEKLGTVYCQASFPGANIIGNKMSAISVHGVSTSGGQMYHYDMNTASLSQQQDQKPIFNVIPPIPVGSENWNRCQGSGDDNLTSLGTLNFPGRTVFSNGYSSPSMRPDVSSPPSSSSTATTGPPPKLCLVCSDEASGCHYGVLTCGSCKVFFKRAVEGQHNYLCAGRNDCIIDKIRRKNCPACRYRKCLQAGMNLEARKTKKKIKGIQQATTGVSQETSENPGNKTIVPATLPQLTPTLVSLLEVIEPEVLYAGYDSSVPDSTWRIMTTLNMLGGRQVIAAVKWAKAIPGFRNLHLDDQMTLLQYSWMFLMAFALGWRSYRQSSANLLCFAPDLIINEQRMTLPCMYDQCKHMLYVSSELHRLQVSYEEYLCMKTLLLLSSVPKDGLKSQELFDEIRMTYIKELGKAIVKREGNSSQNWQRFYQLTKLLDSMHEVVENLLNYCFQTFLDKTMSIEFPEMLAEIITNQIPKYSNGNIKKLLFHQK
# Assay: In Vitro GR Luciferase Reporter Assay (antagonist mode, CHO-K1-GR-MMTV-Luc reporter cells)
# Assay type: cell-based
# Details: antagonist assay with 10 nM Dexamethasone, 18-24 hours
# In short: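 Antagonist mode: compounds (8 serial 1:5 dilutions) added to GR-MMTV-luciferase CHO-K1 reporter cells co-exposed to 10 nM dexamethasone final, in phenol red-free DMEM plus 10% CSS. After roughly 18-24 h at 37° C, OneGlo luminescence read and IC50 calculated.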
row,Compound,IC50 [nM]
1,"Cn1cc(S(=O)(=O)[C@H]2CCC3=Cc4c(cnn4-c4ccc(F)cc4)C[C@]3(C(=O)c3ccc(C4CC4)cn3)C2)cn1 [Example 72, (5-cyclopropylpyridin-2-yl)((4aS,6S)-1-(4-fluorophenyl)-6-((1-methyl-1H-pyrazol-4-yl)sulfonyl)-1,4,5,6,7,8-hexahydro-4aH-benzo[f]indazol-4a-yl)methanone]",≤ 100
2,"O=C(c1cc(C(F)(F)F)ccn1)[C@]12Cc3cnn(-c4ccc(F)cc4)c3C=C1CC[C@H](S(=O)(=O)c1cnn(C3CC3)n1)C2 [Example 73, ((4aS,6S)-6-((2-cyclopropyl-2H-1,2,3-triazol-4-yl)sulfonyl)-1-(4-fluorophenyl)-1,4,5,6,7,8-hexahydro-4aH-benzo[f]indazol-4a-yl)(4-(trifluoromethyl)pyridin-2-yl)methanone]",≤ 100
3,"O=C(c1ccc(Cl)cn1)[C@]12Cc3cnn(-c4ccc(F)cc4)c3C=C1CC[C@H](S(=O)(=O)c1ccccn1)C2 [Example 74, (5-chloropyridin-2-yl)((4aS,6S)-1-(4-fluorophenyl)-6-(pyridin-2-ylsulfonyl)-1,4,5,6,7,8-hexahydro-4aH-benzo[f]indazol-4a-yl)methanone]",≤ 100
4,"O=C(c1cc(C(F)(F)F)ccn1)[C@]12Cc3cnn(-c4ccc(F)cc4)c3C=C1CC[C@H](S(=O)(=O)c1cnn(CC(F)(F)F)c1)C2 [Example 75, ((4aS,6S)-1-(4-fluorophenyl)-6-((1-(2,2,2-trifluoroethyl)-1H-pyrazol-4-yl)sulfonyl)-1,4,5,6,7,8-hexahydro-4aH-benzo[f]indazol-4a-yl)(4-(trifluoromethyl)pyridin-2-yl)methanone]",≤ 100
5,"CCn1cc(S(=O)(=O)[C@H]2CCC3=Cc4c(cnn4-c4ccc(F)cc4)C[C@]3(C(=O)c3cc(C(F)(F)F)ccn3)C2)cn1 [Example 76, ((4aS,6S)-6-((1-ethyl-1H-pyrazol-4-yl)sulfonyl)-1-(4-fluorophenyl)-1,4,5,6,7,8-hexahydro-4aH-benzo[f]indazol-4a-yl)(4-(trifluoromethyl)pyridin-2-yl)methanone]",≤ 100
6,"CCn1ncc(S(=O)(=O)[C@H]2CCC3=Cc4c(cnn4-c4ccc(F)cc4)C[C@]3(C(=O)c3ccc(C(F)(F)F)cn3)C2)n1 [Example 77, ((4aS,6S)-6-((2-ethyl-2H-1,2,3-triazol-4-yl)sulfonyl)-1-(4-fluorophenyl)-1,4,5,6,7,8-hexahydro-4aH-benzo[f]indazol-4a-yl)(5-(trifluoromethyl)pyridin-2-yl)methanone]",≤ 100
7,"CN([C@H]1CCC2=Cc3c(cnn3-c3ccc(F)cc3)C[C@]2(C(=O)c2ccc(C3CC3)cn2)C1)S(=O)(=O)c1cnn(C)n1 [Example 78, N-((4aS,6S)-4a-(5-cyclopropylpicolinoyl)-1-(4-fluorophenyl)-4,4a,5,6,7,8-hexahydro-1H-benzo[f]indazol-6-yl)-N,2-dimethyl-2H-1,2,3-triazole-4-sulfonamide]",≤ 100
8,"O=C(c1cc(C(F)(F)F)ccn1)[C@]12Cc3cnn(-c4ccc(F)cc4)c3C=C1CC[C@H](S(=O)(=O)c1cnn(CC3CC3)n1)C2 [Example 79, ((4aS,6S)-6-((2-(cyclopropylmethyl)-2H-1,2,3-triazol-4-yl)sulfonyl)-1-(4-fluorophenyl)-1,4,5,6,7,8-hexahydro-4aH-benzo[f]indazol-4a-yl)(4-(trifluoromethyl)pyridin-2-yl)methanone]",≤ 100

# The next lines start with the values.
row,IC50 [nM],Compound
1,≤ 100,"COc1ccc(C(=O)[C@]23Cc4cnn(-c5ccc(F)cc5)c4C=C2CC[C@H](S(=O)(=O)c2ccccn2)C3)nc1 [Example 61, ((4aS,6S)-1-(4-fluorophenyl)-6-(pyridin-2-ylsulfonyl)-1,4,5,6,7,8-hexahydro-4aH-benzo[f]indazol-4a-yl)(5-methoxypyridin-2-yl)methanone]"
2,≤ 100,"O=C(c1ccc(C2CC2)cn1)[C@]12Cc3cnn(-c4ccc(F)cc4)c3C=C1CC[C@H](S(=O)(=O)C1CCOCC1)C2 [Example 62, (5-cyclopropylpyridin-2-yl)((4aS,6S)-1-(4-fluorophenyl)-6-((tetrahydro-2H-pyran-4-yl)sulfonyl)-1,4,5,6,7,8-hexahydro-4aH-benzo[f]indazol-4a-yl)methanone]"
3,≤ 100,"CC(C)S(=O)(=O)[C@H]1CCC2=Cc3c(cnn3-c3ccc(F)cc3)C[C@]2(C(=O)c2ccccn2)C1 [Example 63, ((4aS,6S)-1-(4-fluorophenyl)-6-(isopropylsulfonyl)-1,4,5,6,7,8-hexahydro-4aH-benzo[f]indazol-4a-yl)(pyridin-2-yl)methanone]"
4,≤ 100,"O=C(c1cc(C(F)(F)F)ccn1)[C@]12Cc3cnn(-c4ccc(F)cc4)c3C=C1CC[C@H](S(=O)(=O)c1ccc(F)cc1)C2 [Example 64, ((4aS,6S)-1-(4-fluorophenyl)-6-((4-fluorophenyl)sulfonyl)-1,4,5,6,7,8-hexahydro-4aH-benzo[f]indazol-4a-yl)(4-(trifluoromethyl)pyridin-2-yl)methanone]"
5,≤ 100,"O=C(c1ccccn1)[C@]12Cc3cnn(-c4ccc(F)cc4)c3C=C1CC[C@H](S(=O)(=O)C1CCC(F)(F)CC1)C2 [Example 65, ((4aS,6S)-6-((4,4-difluorocyclohexyl)sulfonyl)-1-(4-fluorophenyl)-1,4,5,6,7,8-hexahydro-4aH-benzo[f]indazol-4a-yl)(pyridin-2-yl)methanone]"
6,≤ 100,"Cn1cc(S(=O)(=O)[C@H]2CCC3=Cc4c(cnn4-c4ccc(F)cc4)C[C@]3(C(=O)c3ccc(OC(F)(F)F)cn3)C2)cn1 [Example 66, ((4aS,6S)-1-(4-fluorophenyl)-6-((1-methyl-1H-pyrazol-4-yl)sulfonyl)-1,4,5,6,7,8-hexahydro-4aH-benzo[f]indazol-4a-yl)(5-(trifluoromethoxy)pyridin-2-yl)methanone]"
7,≤ 100,"O=C(c1ccccn1)[C@]12Cc3cnn(-c4ccc(F)cc4)c3C=C1CC[C@H](S(=O)(=O)C1CCC1)C2 [Example 67, ((4aS,6S)-6-(cyclobutylsulfonyl)-1-(4-fluorophenyl)-1,4,5,6,7,8-hexahydro-4aH-benzo[f]indazol-4a-yl)(pyridin-2-yl)methanone]"
8,≤ 100,"O=C(c1ccc(F)cn1)[C@]12Cc3cnn(-c4ccc(F)cc4)c3C=C1CC[C@H](S(=O)(=O)c1ccccn1)C2 [Example 68, ((4aS,6S)-1-(4-fluorophenyl)-6-(pyridin-2-ylsulfonyl)-1,4,5,6,7,8-hexahydro-4aH-benzo[f]indazol-4a-yl)(5-fluoropyridin-2-yl)methanone]"
9,≤ 100,"O=C(c1ccc(C(F)(F)F)cn1)[C@]12Cc3cnn(-c4ccc(F)cc4)c3C=C1CC[C@H](S(=O)(=O)C1CCOCC1)C2 [Example 70, ((4aS,6S)-1-(4-fluorophenyl)-6-((tetrahydro-2H-pyran-4-yl)sulfonyl)-1,4,5,6,7,8-hexahydro-4aH-benzo[f]indazol-4a-yl)(5-(trifluoromethyl)pyridin-2-yl)methanone]"
10,≤ 100,"O=C(c1cc(C(F)(F)F)ccn1)[C@]12Cc3cnn(-c4ccc(F)cc4)c3C=C1CC[C@H](S(=O)(=O)c1cnn(C3CC3)c1)C2 [Example 71, ((4aS,6S)-6-((1-cyclopropyl-1H-pyrazol-4-yl)sulfonyl)-1-(4-fluorophenyl)-1,4,5,6,7,8-hexahydro-4aH-benzo[f]indazol-4a-yl)(4-(trifluoromethyl)pyridin-2-yl)methanone]"

# — patent US20210122730A1, “GLUCOCORTICOID RECEPTOR MODULATORS” (ORIC Pharmaceuticals, Inc., priority 2017, published 2021)
